Assay results reported in patent US11813326B2, “Cell-associating immunologic adjuvants for treatment enhancement” (ACADEMIA SINICA, priority 2018, dated 2023).
Each block holds one compound with its values, some of them ahead of it.

Key:
B16-OVA tumors [1] = assay: Adjuvant retention in tumors and cancer cells after intratumoral injection; format: in vivo, B6 mice; details: intra-tumoral, 24 hours
Experimental: To validate cell-associating effect of the nanoparticle adjuvant formulation, B6 mice were inoculated subcutaneously with B16-OVA tumors. Nanoparticle-mediated adjuvant retention with the B16 cells was validated using whole body imaging, flow cytometric analysis, and fluorescence microscopy. Dye-labelled STING agonist (2′-[DY-547]-AHC-c-diGMP) was administered in its free form and nanoparticle form intra-tumorally and examined after 24 hours.

B16-OVA tumors [2] = assay: Tumor treatment efficacy of adjuvant plus cisplatin, B16-OVA subcutaneous model; format: in vivo, B6 mice; details: intra-tumoral treatment
Experimental: To study the in vivo efficiency of the treatment modality, B6 mice were inoculated subcutaneously with B16-OVA tumors. When the tumors appeared palpable, they were pre-treated with free cGAMP or cGAMP-loaded nanoparticles prior to chemotherapy by cisplatin (CTTP). 24 hours following intra-tumoral adjuvant administration, the mice were given an intra-tumoral cisplatin injection to induce cell death (FIG. 9(a)). These two groups are designated cGAMP+CTTP and NP+CTTP to differentiate the use of free cGAMP and cGAMP-loaded nanoparticles, respectively. For controls, tumor-bearing mice receiving no treatment (placebo), cistplatin only (CTTP only) and cGAMP-loaded nanoparticles only (NP only) were also prepared. For cGAMP administration, 2.5 μg of the adjuvant was administered in 50 μL of solution. For cisplatin administration, 235 μg of the chemodrug was administered in 100 μL of solution. Following the different treatments, the tumor volumes were monitored over time. […] In contrast, no other group had any tumor with complete regression (FIG. 9(b), (c)). […] With the tumor-free surviving mice from the NP+CTTP group, 4 of them were re-challenged with B16-OVA cells on day 60 and compared to animals that had no prior tumor challenge and treatment.

[3] = Encapsulation efficiency of thin-shell polymeric nanoparticles; format: physicochemical; details: for encapsulation efficiency: cargo in thin-shell hollow PLGA nanoparticles
[4] = In vivo immune potentiation after footpad injection (lymph node IFN-β, serum TNF-α); details: after footpad administration, mice
Experimental: Immune potentiation by the cd-GMP nanoparticles was further compared to free cd-GMP in vivo in mice. 48 hours following footpad injections, the draining popliteal lymph nodes were collected for IFN-β quantification. […] In addition, the systemic level of TNF-α, an indicator of reactogenicity, was also monitored following the footpad administration of free cd-GMP and cd-GMP nanoparticles.

HeLa cells = assay: Association of cGAMP adjuvant with HeLa cells and cisplatin-induced debris (confocal, FACS); format: cell-based

adjuvant association within the cancer cells (B16-OVA tumors [1]; flow cytometry and confocal microscopy of extracted cells): little adjuvant retention
adjuvant retention inside the tumor (B16-OVA tumors [1]; whole body imaging): little adjuvant retention
Compound: 2′-[DY-547]-AHC-c-diGMP [free adjuvant]

Compound: N.N.[Cl][Pt][Cl] [CTTP only, cisplatin]
tumor regression (B16-OVA tumors [2]): neither CTTP only nor NP only treatment induced tumor regression

encapsulation efficiency [3]: 37%
encapsulation efficiency ([3]; listed as cd-GMP): about 40%
cargo molecules per nanoparticle ([3]; loading concentration 8 mM DNA, 50 mg/mL BSA, cd-GMP at about 40% efficiency): approximately 2,000
serum level of TNF-α (indicator of reactogenicity) [4]: elevated level
Compound: Nc1nc2c(ncn2[C@@H]2O[C@@H]3COP(=O)(O)O[C@H]4[C@@H](O)[C@H](n5cnc6c(=O)[nH]c(N)nc65)O[C@@H]4COP(=O)(O)O[C@H]3[C@H]2O)c(=O)[nH]1 [cyclic di-GMP]

Compound: Nc1nc2c(ncn2[C@@H]2O[C@@H]3COP(=O)(O)O[C@H]4[C@@H](O)[C@H](n5cnc6c(N)ncnc65)O[C@@H]4COP(=O)(O)O[C@@H]2[C@@H]3O)c(=O)[nH]1 [free cGAMP, 2′3′-cGAMP]
capacity to associate with the cells (HeLa cells): little capacity

Compound: dye-labelled BSA: dye-labelled bovine serum albumin cargo
encapsulation efficiency [3]: 35%
